Results published in the supplement of paper PMC8612539.
In brackets after ≈: the same amount, converted by molar mass.

System: Histophilus somni
Assay: minimum inhibitory concentration (MIC)
Description: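 Broth microdilution MIC (Sensititre BOPO7F bovine plate, CLSI methods) of 19 antimicrobials against field isolates of P. multocida, M. haemolytica, H. somni (deep nasopharyngeal swabs) and E. coli, Enterococcus spp. (rectal swabs) from weaned dairy heifers. Incubation 16-24 h at 35 C. MIC is the lowest concentration preventing visible growth. Values with <= or > lie at the tested range limits. Trimethoprim-sulfamethoxazole is given as the trimethoprim component of a 1:19 mixture.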

CN(C)[C@@H]1C(O)=C(C(N)=O)C(=O)[C@@]2(O)C(O)=C3C(=O)c4c(O)cccc4[C@@](C)(O)[C@H]3C[C@@H]12 [Tetracycline]
Details	minimum inhibitory concentration [µg/mL]
isolate (source animal id): 3	4 (≈ 9 µM)
isolate (source animal id): 4	4 (≈ 9 µM)
isolate (source animal id): 7	8 (≈ 18 µM)
isolate (source animal id): 14	8 (≈ 18 µM)
isolate (source animal id): 15	4 (≈ 9 µM)
isolate (source animal id): 17	8 (≈ 18 µM)
isolate (source animal id): 18	8 (≈ 18 µM)
isolate (source animal id): 20	4 (≈ 9 µM)
isolate (source animal id): 23	≤ 0.5
isolate (source animal id): 45	> 8
isolate (source animal id): 53	> 8
isolate (source animal id): 83	2 (≈ 4.5 µM)
isolate (source animal id): 88	8 (≈ 18 µM)
isolate (source animal id): 92	8 (≈ 18 µM)
isolate (source animal id): 93	8 (≈ 18 µM)
isolate (source animal id): 99	4 (≈ 9 µM)
isolate (source animal id): 100	4 (≈ 9 µM)
isolate (source animal id): 105	2 (≈ 4.5 µM)
isolate (source animal id): 107	4 (≈ 9 µM)
isolate (source animal id): 108	8 (≈ 18 µM)
isolate (source animal id): 109	4 (≈ 9 µM)
isolate (source animal id): 110	4 (≈ 9 µM)
isolate (source animal id): 117	8 (≈ 18 µM)
isolate (source animal id): 121	8 (≈ 18 µM)
isolate (source animal id): 123	4 (≈ 9 µM)
isolate (source animal id): 124	2 (≈ 4.5 µM)
isolate (source animal id): 127	1 (≈ 2.25 µM)
isolate (source animal id): 128	> 8
isolate (source animal id): 130	2 (≈ 4.5 µM)
isolate (source animal id): 132	> 8
isolate (source animal id): 135	> 8
isolate (source animal id): 140	> 8
isolate (source animal id): 141	≤ 0.5
isolate (source animal id): 142	1 (≈ 2.25 µM)
isolate (source animal id): 144	2 (≈ 4.5 µM)
isolate (source animal id): 146	> 8
isolate (source animal id): 147	1 (≈ 2.25 µM)
isolate (source animal id): 151	> 8
isolate (source animal id): 153	4 (≈ 9 µM)
isolate (source animal id): 154	1 (≈ 2.25 µM)
isolate (source animal id): 156	2 (≈ 4.5 µM)
isolate (source animal id): 157	4 (≈ 9 µM)
isolate (source animal id): 176	4 (≈ 9 µM)
isolate (source animal id): 183	4 (≈ 9 µM)
isolate (source animal id): 186	4 (≈ 9 µM)
isolate (source animal id): 196	4 (≈ 9 µM)
isolate (source animal id): 198	2 (≈ 4.5 µM)
isolate (source animal id): 200	4 (≈ 9 µM)
isolate (source animal id): 206	4 (≈ 9 µM)
isolate (source animal id): 208	4 (≈ 9 µM)
isolate (source animal id): 210	1 (≈ 2.25 µM)
isolate (source animal id): 212	1 (≈ 2.25 µM)
isolate (source animal id): 215	4 (≈ 9 µM)
isolate (source animal id): 216	4 (≈ 9 µM)
isolate (source animal id): 218	2 (≈ 4.5 µM)
isolate (source animal id): 219	2 (≈ 4.5 µM)
isolate (source animal id): 224	4 (≈ 9 µM)
isolate (source animal id): 228	8 (≈ 18 µM)
isolate (source animal id): 230	4 (≈ 9 µM)
isolate (source animal id): 233	> 8
isolate (source animal id): 238	≤ 0.5
isolate (source animal id): 239	> 8
isolate (source animal id): 241	4 (≈ 9 µM)
isolate (source animal id): 242	4 (≈ 9 µM)
isolate (source animal id): 243	≤ 0.5
isolate (source animal id): 245	> 8
isolate (source animal id): 246	≤ 0.5
isolate (source animal id): 247	4 (≈ 9 µM)
isolate (source animal id): 248	≤ 0.5
isolate (source animal id): 250	8 (≈ 18 µM)
isolate (source animal id): 251	> 8
isolate (source animal id): 252	4 (≈ 9 µM)
isolate (source animal id): 254	4 (≈ 9 µM)
isolate (source animal id): 258	4 (≈ 9 µM)
isolate (source animal id): 259	4 (≈ 9 µM)
isolate (source animal id): 262	> 8
isolate (source animal id): 264	1 (≈ 2.25 µM)
isolate (source animal id): 265	> 8
isolate (source animal id): 266	2 (≈ 4.5 µM)
isolate (source animal id): 267	2 (≈ 4.5 µM)
isolate (source animal id): 269	1 (≈ 2.25 µM)
isolate (source animal id): 271	2 (≈ 4.5 µM)
isolate (source animal id): 272	> 8
isolate (source animal id): 274	> 8
isolate (source animal id): 276	≤ 0.5
isolate (source animal id): 278	2 (≈ 4.5 µM)
isolate (source animal id): 280	> 8
isolate (source animal id): 281	2 (≈ 4.5 µM)
isolate (source animal id): 283	2 (≈ 4.5 µM)
isolate (source animal id): 288	4 (≈ 9 µM)
isolate (source animal id): 291	8 (≈ 18 µM)
isolate (source animal id): 292	2 (≈ 4.5 µM)
isolate (source animal id): 296	1 (≈ 2.25 µM)
isolate (source animal id): 306	2 (≈ 4.5 µM)
isolate (source animal id): 336	2 (≈ 4.5 µM)
isolate (source animal id): 337	2 (≈ 4.5 µM)
isolate (source animal id): 341	1 (≈ 2.25 µM)

CC[C@H]1OC(=O)C[C@@H](O)[C@H](C)[C@@H](O[C@@H]2O[C@H](C)[C@@H](O)[C@H](N(C)C)[C@H]2O)[C@@H](CCN2CCCCC2)C[C@@H](C)C(=O)/C=C/C(C)=C/[C@@H]1CN1CCCCC1 [Tildipirosin]
Details	minimum inhibitory concentration [µg/mL]
isolate (source animal id): 3	≤ 1
isolate (source animal id): 4	2 (≈ 2.72 µM)
isolate (source animal id): 7	≤ 1
isolate (source animal id): 14	≤ 1
isolate (source animal id): 15	4 (≈ 5.45 µM)
isolate (source animal id): 17	≤ 1
isolate (source animal id): 18	≤ 1
isolate (source animal id): 20	≤ 1
isolate (source animal id): 23	2 (≈ 2.72 µM)
isolate (source animal id): 45	4 (≈ 5.45 µM)
isolate (source animal id): 53	4 (≈ 5.45 µM)
isolate (source animal id): 83	2 (≈ 2.72 µM)
isolate (source animal id): 88	2 (≈ 2.72 µM)
isolate (source animal id): 92	4 (≈ 5.45 µM)
isolate (source animal id): 93	≤ 1
isolate (source animal id): 99	2 (≈ 2.72 µM)
isolate (source animal id): 100	4 (≈ 5.45 µM)
isolate (source animal id): 105	≤ 1
isolate (source animal id): 107	2 (≈ 2.72 µM)
isolate (source animal id): 108	4 (≈ 5.45 µM)
isolate (source animal id): 109	4 (≈ 5.45 µM)
isolate (source animal id): 110	4 (≈ 5.45 µM)
isolate (source animal id): 117	≤ 1
isolate (source animal id): 121	≤ 1
isolate (source animal id): 123	2 (≈ 2.72 µM)
isolate (source animal id): 124	2 (≈ 2.72 µM)
isolate (source animal id): 127	≤ 1
isolate (source animal id): 128	2 (≈ 2.72 µM)
isolate (source animal id): 130	2 (≈ 2.72 µM)
isolate (source animal id): 132	4 (≈ 5.45 µM)
isolate (source animal id): 135	2 (≈ 2.72 µM)
isolate (source animal id): 140	2 (≈ 2.72 µM)
isolate (source animal id): 141	2 (≈ 2.72 µM)
isolate (source animal id): 142	> 16
isolate (source animal id): 144	4 (≈ 5.45 µM)
isolate (source animal id): 146	4 (≈ 5.45 µM)
isolate (source animal id): 147	> 16
isolate (source animal id): 151	2 (≈ 2.72 µM)
isolate (source animal id): 153	8 (≈ 10.9 µM)
isolate (source animal id): 154	> 16
isolate (source animal id): 156	> 16
isolate (source animal id): 157	8 (≈ 10.9 µM)
isolate (source animal id): 176	2 (≈ 2.72 µM)
isolate (source animal id): 183	2 (≈ 2.72 µM)
isolate (source animal id): 186	4 (≈ 5.45 µM)
isolate (source animal id): 196	4 (≈ 5.45 µM)
isolate (source animal id): 198	4 (≈ 5.45 µM)
isolate (source animal id): 200	8 (≈ 10.9 µM)
isolate (source animal id): 206	8 (≈ 10.9 µM)
isolate (source animal id): 208	8 (≈ 10.9 µM)
isolate (source animal id): 210	2 (≈ 2.72 µM)
isolate (source animal id): 212	≤ 1
isolate (source animal id): 215	4 (≈ 5.45 µM)
isolate (source animal id): 216	8 (≈ 10.9 µM)
isolate (source animal id): 218	4 (≈ 5.45 µM)
isolate (source animal id): 219	8 (≈ 10.9 µM)
isolate (source animal id): 224	8 (≈ 10.9 µM)
isolate (source animal id): 228	4 (≈ 5.45 µM)
isolate (source animal id): 230	≤ 1
isolate (source animal id): 233	≤ 1
isolate (source animal id): 238	≤ 1
isolate (source animal id): 239	2 (≈ 2.72 µM)
isolate (source animal id): 241	2 (≈ 2.72 µM)
isolate (source animal id): 242	2 (≈ 2.72 µM)
isolate (source animal id): 243	≤ 1
isolate (source animal id): 245	≤ 1
isolate (source animal id): 246	4 (≈ 5.45 µM)
isolate (source animal id): 247	2 (≈ 2.72 µM)
isolate (source animal id): 248	≤ 1
isolate (source animal id): 250	2 (≈ 2.72 µM)
isolate (source animal id): 251	4 (≈ 5.45 µM)
isolate (source animal id): 252	4 (≈ 5.45 µM)
isolate (source animal id): 254	4 (≈ 5.45 µM)
isolate (source animal id): 258	2 (≈ 2.72 µM)
isolate (source animal id): 259	2 (≈ 2.72 µM)
isolate (source animal id): 262	≤ 1
isolate (source animal id): 264	≤ 1
isolate (source animal id): 265	2 (≈ 2.72 µM)
isolate (source animal id): 266	2 (≈ 2.72 µM)
isolate (source animal id): 267	2 (≈ 2.72 µM)
isolate (source animal id): 269	2 (≈ 2.72 µM)
isolate (source animal id): 271	2 (≈ 2.72 µM)
isolate (source animal id): 272	≤ 1
isolate (source animal id): 274	≤ 1
isolate (source animal id): 276	≤ 1
isolate (source animal id): 278	2 (≈ 2.72 µM)
isolate (source animal id): 280	≤ 1
isolate (source animal id): 281	4 (≈ 5.45 µM)
isolate (source animal id): 283	2 (≈ 2.72 µM)
isolate (source animal id): 288	4 (≈ 5.45 µM)
isolate (source animal id): 291	2 (≈ 2.72 µM)
isolate (source animal id): 292	4 (≈ 5.45 µM)
isolate (source animal id): 296	2 (≈ 2.72 µM)
isolate (source animal id): 306	8 (≈ 10.9 µM)
isolate (source animal id): 336	8 (≈ 10.9 µM)
isolate (source animal id): 337	8 (≈ 10.9 µM)
isolate (source animal id): 341	4 (≈ 5.45 µM)
